US20080014186A1, “Hla-A24 or Hla-A2 Binding Peptides of Parathyroid Hormone-Related Protein” (GREEN PEPTIDE CO., LTD., priority 2004, published 2008)

How the values were obtained:
[1] = test system: IgG in plasma of HLA-A24^+ healthy donors and prostate cancer patients; assay: Peptide-specific IgG in plasma by ELISA (HLA-A24-binding PTHrP peptides); design: species or system human; conditions: for IgG reactive to the peptide in plasma: 1:100-diluted plasma
Description: The inventors previously reported that IgGs reactive to CTL epitope peptides were detected in healthy donors and patients with various types of cancers. IgGs reactive to prostate-related antigens were also detected in healthy donors and prostate cancer patients. It was examined, therefore, whether IgG reactive to the four PTHrP-derived peptides, PTHrP 36-44, PTHrP 102-111, PTHrP 25-34, and PTHrP 110-119, could be detected in the plasma of cancer patients and healthy donors.
Peptide-specific IgG levels in the plasma were measured by ELISA, as previously reported. In brief, peptide (20 μg/well)-immobilized plates were blocked with Block Ace (Yukijirushi, Tokyo, Japan) and washed with 0.05% Tween20-PBS, after which 100 μl/well of plasma sample diluted with 0.05% Tween20-Block Ace was added to the plate. After 2 hours incubation at 37° C., the plates were washed and further incubated for 2 hours with a 1:1000-diluted rabbit anti-human IgG (γ-chain-specific) (DAKO, Glostrup, Denmark). The plates were washed, and then 100 μl of 1:100-diluted goat anti-rabbit IgG-conjugated horseradish peroxidase (EnVision, DAKO) was added to each well, and the plates were then incubated at room temperature for 40 min. After the plates were washed once, 100 μl/well of tetramethyl benzidine substrate solution (KPL, Guildford, UK) was added, and the reaction was stopped by the addition of 1 M phosphoric acid. The values are shown as optical density (OD) units/ml, and responses to the HIV peptide were subtracted. IgG reactive to a corresponding PTHrP peptide was judged to be positive when the difference of the OD in 1:100-diluted plasma exceeded 0.05. The results that IgG reactive to either the PTHrP102-111 or the […] peptide was detected in 8 of 10 healthy donors and in 7 of 10 prostate cancers are shown in Table 2 hereinafter.
To confirm the specificity of IgG to the indicated PTHrP peptide, 100 μl of sample plasma from either HD #1 and Pt #6 was cultured in a plate pre-coated with either a corresponding PTHrP peptide or an irrelevant PTHrP peptide. Thereafter, the levels of IgG reactive to the PTHrP 102-111 peptide or the PTHrP 110-119 peptide in the resulting supernatants were determined by ELISA.

[2] = test system: PBMCs of HLA-A24^+ healthy donors and prostate cancer patients; assay: Assay for peptide-specific CTLs in PBMCs (IFN-γ ELISA, peptide-pulsed C1R-A24 cells); format: cell-based, human; conditions: for IFN-γ production: C1R-A24 cells, HIV peptide background subtracted
Description: To investigate the immunogenicity of these four PTHrP peptides, the PBMCs of 10 HLA-A24^+ healthy donors and 10 HLA-A24^+ prostate cancer patients were stimulated with each of the four PTHrP peptides and were examined for their IFN-γ production in response to C1R-A24 cells, which were pre-pulsed with either a corresponding PTHrP peptide or the HIV peptide. Flu- and EBV-derived peptides were used as controls.
The assay for detection of peptide-specific CTLs in PBMCs was performed according to a previously reported method. In brief, PBMCs (1 X 10^5 cells/well) were incubated with […] of each peptide in a U-bottom-type 96-well microculture plate (Nunc, Roskilde, Denmark) at a volume of 200 μl of culture medium. The culture medium consisted of 45% RPMI-1640, 45% AIM-V medium (Gibco BRL), 10% FCS, 100 U/ml of IL-2, and 0.1 mM MEM nonessential amino acid solution (Gibco, BRL). Half of the culture medium was removed and replaced with new medium containing a corresponding peptide (20 μg/ml) every 3 days. On the 15th day of culture, the cultured cells were separated into 4 wells, and two wells were used for PTHrP peptide-pulsed C1R-A24 cells, and the other two wells were used for the HIV peptide-pulsed C1R-A24 cells. After an 18-hr incubation period, the supernatants were collected, and the level of IFN-γ was determined by ELISA (limit of sensitivity: 10 pg/ml).
The assay was carried out in quadruplicate, and the mean of two wells which show the highest significance compared to the control is shown in Table 1.
It was then determined whether PBMCs stimulated by either the PTHrP 36-44 or the PTHrP 102-111 peptide could induce prostate cancer-reactive CTLs from HLA-A24^+ healthy donors and prostate cancer patients. PBMCs from HLA-A24^+ healthy donors and prostate cancer patients were repeatedly stimulated with these PTHrP peptides. On day 15, half of the cultured cells were harvested, pooled from 4 wells, and cultured with C1R-A24 cells, which were pre-pulsed with the HIV peptide (open symbol) and the indicated PTHrP peptide (closed symbol) for 18-hr. The levels of IFN-γ in the supernatants were then determined by ELISA.

[3] = HLA-A24^+ prostate cancer patient #1
[4] = HLA-A24^+ prostate cancer patient #2
[5] = HLA-A24^+ prostate cancer patient #3
[6] = HLA-A24^+ prostate cancer patient #4
[7] = HLA-A24^+ prostate cancer patient #5
[8] = HLA-A24^+ prostate cancer patient #6
[9] = HLA-A24^+ prostate cancer patient #7
[10] = HLA-A24^+ prostate cancer patient #8
[11] = HLA-A24^+ prostate cancer patient #9
[12] = HLA-A24^+ prostate cancer patient #10
[13] = HLA-A24^+ prostate cancer patients

KVETYKEQPL [PTHrP 110-119]
IgG reactive to the peptide in plasma ([1]; HLA-A24^+ healthy donor #1): + (IgG reactive to a corresponding peptide was judged to be positive when the difference of the OD in 1:100-diluted plasma exceeded 0.05.) | IgG reactive to the peptide in plasma ([1]; HLA-A24^+ healthy donor #2): + (IgG reactive to a corresponding peptide was judged to be positive when the difference of the OD in 1:100-diluted plasma exceeded 0.05.) | IgG reactive to the peptide in plasma ([1]; HLA-A24^+ healthy donor #3): + (IgG reactive to a corresponding peptide was judged to be positive when the difference of the OD in 1:100-diluted plasma exceeded 0.05.) | IgG reactive to the peptide in plasma ([1]; HLA-A24^+ healthy donor #4): − (IgG reactive to a corresponding peptide was judged to be positive when the difference of the OD in 1:100-diluted plasma exceeded 0.05.) | IgG reactive to the peptide in plasma ([1]; HLA-A24^+ healthy donor #5): + (IgG reactive to a corresponding peptide was judged to be positive when the difference of the OD in 1:100-diluted plasma exceeded 0.05.) | IgG reactive to the peptide in plasma ([1]; HLA-A24^+ healthy donor #6): − (IgG reactive to a corresponding peptide was judged to be positive when the difference of the OD in 1:100-diluted plasma exceeded 0.05.) | IgG reactive to the peptide in plasma ([1]; HLA-A24^+ healthy donor #7): + (IgG reactive to a corresponding peptide was judged to be positive when the difference of the OD in 1:100-diluted plasma exceeded 0.05.) | IgG reactive to the peptide in plasma ([1]; HLA-A24^+ healthy donor #8): + (IgG reactive to a corresponding peptide was judged to be positive when the difference of the OD in 1:100-diluted plasma exceeded 0.05.) | IgG reactive to the peptide in plasma ([1]; HLA-A24^+ healthy donor #9): + (IgG reactive to a corresponding peptide was judged to be positive when the difference of the OD in 1:100-diluted plasma exceeded 0.05.) | IgG reactive to the peptide in plasma ([1]; HLA-A24^+ healthy donor #10): + (IgG reactive to a corresponding peptide was judged to be positive when the difference of the OD in 1:100-diluted plasma exceeded 0.05.) | IgG reactive to the peptide detected, number of donors ([1]; HLA-A24^+ healthy donors): 8 of 10 | Total (IgG-positive donors / donors tested) ([1]; HLA-A24^+ healthy donors): 8/10 | IgG reactive to the peptide in plasma [1, 3]: + (IgG reactive to a corresponding peptide was judged to be positive when the difference of the OD in 1:100-diluted plasma exceeded 0.05.) | IgG reactive to the peptide in plasma [1, 4]: + (IgG reactive to a corresponding peptide was judged to be positive when the difference of the OD in 1:100-diluted plasma exceeded 0.05.) | IgG reactive to the peptide in plasma [1, 5]: − (IgG reactive to a corresponding peptide was judged to be positive when the difference of the OD in 1:100-diluted plasma exceeded 0.05.) | IgG reactive to the peptide in plasma [1, 6]: − (IgG reactive to a corresponding peptide was judged to be positive when the difference of the OD in 1:100-diluted plasma exceeded 0.05.) | IgG reactive to the peptide in plasma [1, 7]: − (IgG reactive to a corresponding peptide was judged to be positive when the difference of the OD in 1:100-diluted plasma exceeded 0.05.) | IgG reactive to the peptide in plasma [1, 8]: + (IgG reactive to a corresponding peptide was judged to be positive when the difference of the OD in 1:100-diluted plasma exceeded 0.05.) | IgG reactive to the peptide in plasma [1, 9]: + (IgG reactive to a corresponding peptide was judged to be positive when the difference of the OD in 1:100-diluted plasma exceeded 0.05.) | IgG reactive to the peptide in plasma [1, 10]: + (IgG reactive to a corresponding peptide was judged to be positive when the difference of the OD in 1:100-diluted plasma exceeded 0.05.) | IgG reactive to the peptide in plasma [1, 11]: + (IgG reactive to a corresponding peptide was judged to be positive when the difference of the OD in 1:100-diluted plasma exceeded 0.05.) | IgG reactive to the peptide in plasma [1, 12]: + (IgG reactive to a corresponding peptide was judged to be positive when the difference of the OD in 1:100-diluted plasma exceeded 0.05.) | IgG reactive to the peptide detected, number of patients [1, 13]: 7 of 10 | Total (IgG-positive patients / patients tested) [1, 13]: 7/10 | Peptide-specific absorption of IgG (level after culturing plasma in corresponding peptide-coated wells) ([1]; plasma from HD #1 and Pt #6, FIG. 3B): significantly diminished | IFN-γ production ([2]; HLA-A24^+ healthy donor #1): 394 pg/mL | IFN-γ production ([2]; HLA-A24^+ healthy donor #2): 17 pg/mL | IFN-γ production ([2]; HLA-A24^+ healthy donor #3): 20 pg/mL | IFN-γ production ([2]; HLA-A24^+ healthy donor #4): 2 pg/mL | IFN-γ production ([2]; HLA-A24^+ healthy donor #5): 38 pg/mL | IFN-γ production ([2]; HLA-A24^+ healthy donor #6): 357 pg/mL | IFN-γ production ([2]; HLA-A24^+ healthy donor #7): 0 pg/mL | IFN-γ production ([2]; HLA-A24^+ healthy donor #8): 1017 pg/mL | IFN-γ production ([2]; HLA-A24^+ healthy donor #9): 61 pg/mL | IFN-γ production ([2]; HLA-A24^+ healthy donor #10): 0 pg/mL | induced peptide-specific CTLs, number of donors ([2]; HLA-A24^+ healthy donors): 3 of 10 | Total (donors with significant peptide-specific IFN-γ production / donors tested) ([2]; HLA-A24^+ healthy donors, p < 0.05): 3/10 | IFN-γ production [2, 3]: 0 pg/mL | IFN-γ production [2, 4]: 9 pg/mL | IFN-γ production [2, 5]: 38 pg/mL | IFN-γ production [2, 6]: 19 pg/mL | IFN-γ production [2, 7]: 10 pg/mL | IFN-γ production [2, 8]: 14 pg/mL | IFN-γ production [2, 9]: 0 pg/mL | IFN-γ production [2, 10]: 23 pg/mL | IFN-γ production [2, 11]: 0 pg/mL | IFN-γ production [2, 12]: 118 pg/mL | induced peptide-specific CTLs (peptide-specific IFN-γ production), number of patients [2, 13]: 1 of 10 | Total (patients with significant peptide-specific IFN-γ production / patients tested) ([2]; HLA-A24^+ prostate cancer patients, p < 0.05): 1/10
